{"source": "patent US9133457B2", "about": "“Methods of incorporating amino acid analogs into proteins” (California Institute of Technology, priority 2004, dated 2015)", "key": {"[1]": {"molecular_target": "T1, E. coli leucyl-tRNA synthetase (LeuRS) (Escherichia coli, UniProt P07813)", "T1 construct": "endogenous in cells; host or cells: E. coli expression strain (Phe/Leu auxotroph) carrying ytRNAPheCAA and modified yeast PheRS", "test": "incorporation of Nal into mDHFR at Leu codon UUG, effect of LeuRS inhibitor", "format": "cell-based", "excerpt": "In this example, multiple-site-specific incorporation of an unnatural amino acid into murine dihydrofolate reductase (mDHFR) in response to a sense codon was realized by use of an E. coli strain outfitted with a yeast transfer RNA (ytRNA^pheCAA) capable of Watson-Crick base-pairing with the leucine (Leu) codon UUG. ytRNA^pheCAA was charged with L-3-(2-naphthyl)alanine (Nal) by a co-expressed modified yeast phenylalanine tRNA synthetase. See schematic diagram in FIG. 3.\nIncomplete occupancy of the UUG codon by Nal is due at least in part to competition with leucine-charged E. coli tRNA^Leus. In an attempt to reduce competition by E. coli tRNA^Leus, use of a mutant E. coli strain lacking tRNA^LeuCAA and addition of an E. coli leucyl-tRNA synthetase (LeuRS) inhibitor were tested. A Phe/Leu double auxotrophic strain derived from the tRNA^LeuCAA-deficient strain XA106 (CGSC at Yale) was tested for incorporation of Nal at the UUG codon.\nReplacement of Leu by Nal was detected in MALDI mass spectra of tryptic fragments of mDHFR (FIG. 4). […] Furthermore, Nal incorporation was not detected when UUG was mutated to UUA in Peptide 3. No signal corresponding to Peptide 4CUG (Nal) was detected, whereas that corresponding to Peptide 4CUG was detected at 904.54 mass units. […]"}, "[2]": {"molecular_target": "T1, E. coli leucyl-tRNA synthetase (LeuRS)", "details": "in vitro; cited from earlier work"}, "[3]": {"molecular_target": "T2, mu-yPheRS (modified yeast PheRS, Thr415Gly) (Saccharomyces cerevisiae, UniProt P15625, T415G)", "T2 construct": "made in house", "T2 sequence (P15624 whole entry)": "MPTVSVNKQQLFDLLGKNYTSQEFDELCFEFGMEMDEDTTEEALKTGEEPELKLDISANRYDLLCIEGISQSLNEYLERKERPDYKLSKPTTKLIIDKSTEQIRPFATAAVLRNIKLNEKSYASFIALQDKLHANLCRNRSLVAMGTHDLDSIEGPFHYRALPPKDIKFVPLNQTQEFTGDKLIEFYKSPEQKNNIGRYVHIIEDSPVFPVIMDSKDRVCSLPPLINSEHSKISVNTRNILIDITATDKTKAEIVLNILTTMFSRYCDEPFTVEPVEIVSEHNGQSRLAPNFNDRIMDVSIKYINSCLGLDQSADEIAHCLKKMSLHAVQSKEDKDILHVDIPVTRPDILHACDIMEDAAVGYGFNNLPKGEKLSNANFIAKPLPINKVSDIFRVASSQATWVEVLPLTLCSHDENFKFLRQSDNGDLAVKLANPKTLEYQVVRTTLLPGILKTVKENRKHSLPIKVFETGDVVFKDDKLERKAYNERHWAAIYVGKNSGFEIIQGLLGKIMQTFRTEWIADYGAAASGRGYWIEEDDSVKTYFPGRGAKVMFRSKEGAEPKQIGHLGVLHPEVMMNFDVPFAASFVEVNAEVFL", "T2 sequence (P15625 whole entry T415G)": "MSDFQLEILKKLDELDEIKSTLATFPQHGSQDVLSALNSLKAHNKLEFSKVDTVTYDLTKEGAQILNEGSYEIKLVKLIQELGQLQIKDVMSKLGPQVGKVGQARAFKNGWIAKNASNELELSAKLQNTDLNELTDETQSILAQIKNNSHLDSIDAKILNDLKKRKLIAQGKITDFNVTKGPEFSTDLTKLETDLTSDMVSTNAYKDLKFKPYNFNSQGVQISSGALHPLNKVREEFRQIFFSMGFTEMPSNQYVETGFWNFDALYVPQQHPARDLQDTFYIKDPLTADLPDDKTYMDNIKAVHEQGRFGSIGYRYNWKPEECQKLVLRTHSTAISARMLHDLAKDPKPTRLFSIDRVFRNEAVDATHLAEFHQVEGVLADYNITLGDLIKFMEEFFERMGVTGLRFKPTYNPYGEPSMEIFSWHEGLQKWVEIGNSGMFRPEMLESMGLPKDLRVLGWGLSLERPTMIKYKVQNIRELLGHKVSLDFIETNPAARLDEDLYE", "test": "adenosine triphosphate-pyrophosphate exchange assay (amino acid activation)", "format": "biochemical", "details": "larger than Phe", "method": "The modified yeast PheRS (mu-yPheRS) was prepared by introduction of a Thr415Gly mutation in the α-subunit of the synthetase (Datta el al., J. Am. Chem. Soc. 124: 5652, 2002). The kinetics of activation of Nal and Phe by mu-yPheRS were analyzed in vitro via the adenosine triphosphate-pyrophosphate exchange assay."}, "[4]": {"test_system": "E. coli strain (K10-F6)", "test": "incorporation of Nal into mDHFR at Phe codons UUU/UUC (amino acid analysis, MALDI of tryptic digests)", "format": "cell-based", "method": "In this construct, four of the Phe residues of mDHFR are encoded by UUC codons, five by UUU. A full-length copy of the mu-yPheRS gene, under control of a constitutive tac promoter, was inserted into pQE16. […] E. coli transformants harboring these two plasmids were incubated in Phe-depleted minimal medium supplemented with 3 mM Nal and were then treated with 1 mM IPTG to induce expression of mDHFR. Although the E. coli strain (K10-F6) used in this study is a Phe auxotroph, (see Furter, supra) a detectable level of mDHFR was expressed even under conditions of nominal depletion of Phe, probably because of release of Phe through turnover of cellular proteins. In negative control experiments, mDHFR was expressed in the absence of either ytRNA^PheAAA or mu-yPheRS. […] For mDHFR isolated from the strain harboring the heterologous pair, amino acid analysis indicated replacement of 4.4 of the 9 Phe residues by Nal.\nTryptic digests of mDHFR were analyzed to determine the occupancy of individual Phe sites. Peptide 1UUU (residues 184-191, […], SEQ ID NO: 1) contains a Phe residue encoded as UUU, whereas peptides 2UUC (residues 62-70, […], SEQ ID NO: 2) and 3UUC (residues 26-39, […], SEQ ID NO: 3) each contain a Phe residue encoded as UUC. In the absence of Nal, peptide 1UUU was detected with a monoisotopic mass of 1105.55 Da, in accord with its theoretical mass (FIG. 2A). […] As described earlier, each substitution of Nal for Phe leads to a mass increase of 50.06 Da; the observed shift in mass is thus consistent with replacement of Phe by Nal in response to the UUU codon. Liquid chromatography-tandem mass spectrometry (LC/MS/MS) confirmed this assignment.\nSimilar analyses were conducted for peptides 2UUC and 3UUC. In the absence of added Nal, the observed masses of peptides 2UUC and 3UUC are 1135.61 (FIG. 2A) and 1682.89 Da (FIG. 2D), respectively, as expected. […] Nal incorporation thus appears to be rare at UUC codons under the conditions used here for protein expression.\nThere is at least a formal possibility that the observed codon-biased incorporation of Nal might be dependent on codon context rather than, or in addition to, codon identity. MALDI sampling errors are also possible. To test these possibilities, a mutant mDHFR gene was prepared by mutating the UUU codon in peptide 1UUU to UUC, and the UUC codon in peptide 3UUC to UUU. In the resulting peptide 1UUC, the signal indicating incorporation of Nal was only slightly above background (FIG. 2C), whereas for peptide 3UUU, Nal is readily detected (FIG. 2F). Nal incorporation is unambiguously codon-biased to UUU."}, "[5]": {"test_system": "Escherichia coli", "details": "cited from earlier work"}, "[6]": {"details": "cited from earlier work"}, "[7]": {"details": "degree similar to Ceredase; cited from earlier work"}, "[8]": {"details": "modified using conventional amine-PEGylation; cited from earlier work"}}, "note": "Read-outs that look alike come from different tables or passages of the source.", "data": [{"molecule": "CN(C)CC(N)C(=O)O", "note": "(racemic) [AZL, 4-Aza-DL-leucine]", "values": [{"measurement": "effect on occupancy of the UUG codon by Nal", "setting": "[1]; 1 mM AZL in the media", "value": "enhanced occupancy"}, {"measurement": "inhibition of E. coli LeuRS", "setting": "[2]", "value": "competitive inhibitor"}]}, {"molecule": "N[C@@H](Cc1ccc2ccccc2c1)C(=O)O", "note": "[Nal, L-3-(2-naphthyl)alanine]", "values": [{"measurement": "specificity constant relative to that for Phe", "setting": "[3]", "value": 8, "unit": "fold"}, {"measurement": "Nal incorporation at the UUU codon", "setting": "[4]; MALDI signal intensities, peptide 1UUU", "value": "dominant"}, {"measurement": "Nal incorporation at UUC codons", "setting": "[4]; MALDI, peptides 2UUC and 3UUC", "value": "rare"}, {"measurement": "Phe residues of mDHFR replaced by Nal", "setting": "[4]; of the 9 Phe residues, strain harboring ytRNA^PheAAA and mu-yPheRS, 3 mM Nal, amino acid analysis", "value": 4.4}, {"measurement": "incorporation of Nal into mDHFR", "setting": "[4]; without ytRNA^PheAAA or mu-yPheRS, amino acid analysis", "value": "no incorporation"}, {"measurement": "re-assignment of the UUG codon to Nal", "setting": "[1]; ytRNA^PheCAA and modified yeast PheRS, mass spectrometry of tryptic digests", "value": "partially re-assigned"}]}, {"molecule": "CC1(C)S[C@@H]2[C@H](NC(=O)[C@H](N)c3ccccc3)C(=O)N2[C@H]1C(=O)O", "note": "[ampicillin]", "values": [{"measurement": "IC50 of cells", "setting": "[5]; SctRNAGlnCUA coexpressed with ScGlnRS", "value": "about 500 μg/mL"}, {"measurement": "IC50 of cells", "setting": "[5]; only SctRNAGlnCUA expressed", "value": 20, "unit": "µg/mL"}]}, {"molecule": "Cerezyme: recombinant analogue of the human enzyme β-Glucocerebrosidase, imiglucerase for injection (protein, UniProt P04062 40-536, looked up, variant R495H, imiglucerase, recombinant analogue of the human enzyme β-Glucocerebrosidase, imiglucerase for injection) Lysosomal acid …: ARPCIPKSFGYSSVVCVCNATYCDSFDPPTFPALGTFSRYESTRSGRRMELSMGPIQANHTGTGLLLTLQPEQKFQKVKGFGGAMTDAAALNILALSPPAQNLLLKSYFSEEGIGYNIIRVPMASCDFSIRTYTYADTPDDFQLHNFSLPEEDTKLKIPLIHRALQLAQRPVSLLASPWTSPTWLKTNGAVNGKGSLKGQPGDIYHQTWARYFVKFLDAYAEHKLQFWAVTAENEPSAGLLSGYPFQCLGFTPEHQRDFIARDLGPTLANSTHHNVRLLMLDDQRLLLPHWAKVVLTDPEAAKYVHGIAVHWYLDFLAPAKATLGETHRLFPNTMLFASEACVGSKFWEQSVRLGSWDRGMQYSHSIITNLLYHVVGWTDWNLALNPEGGPNWVRNFVDSPIIVDITKDTFYKQPMFYHLGHFSKFIPEGSQRVGLVASQKNDLDAVALMHPDGSAVVVVLNRSSKDVPLTIKDPAVGFLETISPGYSIHTYLWHRQ", "values": [{"measurement": "time to steady-state enzymatic activity", "setting": "[6]; during one-hour intravenous infusions", "value": "≤ 30", "unit": "min"}, {"measurement": "plasma clearance, mean±S.D.", "setting": "[6]; in vivo", "value": "14.5 ± 4.0", "unit": "mL/min/kg"}, {"measurement": "volume of distribution corrected for weight, mean±S.D.", "setting": "[6]; in vivo", "value": "0.12 ± 0.02", "unit": "L/kg"}, {"measurement": "clinical effect", "setting": "[7]", "value": "improved anemia and thrombocytopenia, reduced spleen and liver size, and decreased cachexia"}]}, {"molecule": "GCSF: GCSF modified using conventional amine-PEGylation technologies (conjugate, UniProt P09919 31-207, looked up, amine PEGylation, GCSF modified using conventional amine-PEGylation technologies) Granulocyte …: TPLGPASSLPQSFLLKCLEQVRKIQGDGAALQEKLVSECATYKLCHPEELVLLGHSLGIPWAPLSSCPSQALQLAGCLSQLHSGLFLYQGLLQALEGISPELGPTLDTLQLDVADFATTIWQQMEELGMAPALQPTQGAMPAFASAFQRRAGGVLVASHLQSFLEVSYRVLRHLAQP", "values": [{"measurement": "reduction of bioactivity", "setting": "[8]", "value": "1,000 fold"}]}]}
